According to PubChem BioAssay (NCI):
Where “and” joins values, the source holds several entries; their conditions need not be identical. Identical values can stand only once.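 1) Cells in 96-well plates. 2) Compound, 48 h, 5 concentrations. 3) Linear interpolation between surrounding doses. 4) Unreached endpoint = highest concentration. GI50 is the concentration that inhibits growth by half. The concentration for full growth arrest is given as TGI.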

How the values were obtained:
Experiment in all cases: inhibition of tumour cell growth, NCI panel, 48 h
EKVX NSCLC = test system: EKVX NSCLC
SK-MEL-5 melanoma = test system: SK-MEL-5 melanoma
HCT-116 colon = test system: HCT-116 colon
OVCAR-5 ovarian = test system: OVCAR-5 ovarian
HCT-15 colon = test system: HCT-15 colon
SW-620 colon = test system: SW-620 colon
LOX IMVI melanoma = test system: LOX IMVI melanoma
BT-549 breast = test system: BT-549 breast
SR leukemia = test system: SR leukemia
MDA-MB-435 = test system: MDA-MB-435

SMILES	TGI (EKVX NSCLC) [µM]	TGI (SK-MEL-5 melanoma) [µM]	TGI (HCT-116 colon) [µM]	TGI (OVCAR-5 ovarian) [µM]	TGI (HCT-15 colon) [µM]	TGI (SW-620 colon) [µM]	TGI (LOX IMVI melanoma) [µM]	TGI (BT-549 breast) [µM]	GI50 (SK-MEL-5 melanoma) [µM]	TGI (SR leukemia) [µM]	GI50 (MDA-MB-435)	TGI (MDA-MB-435) [µM]	GI50 (SW-620 colon) [µM]	GI50 (LOX IMVI melanoma)	GI50 (EKVX NSCLC) [µM]	GI50 (BT-549 breast) [µM]	GI50 (HCT-116 colon) [µM]	GI50 (SR leukemia) [µM]	GI50 (OVCAR-5 ovarian) [µM]	GI50 (HCT-15 colon) [µM]
N/C(=C\c1ccc(/C=C(\NC(=O)c2ccccc2)c2nc3c([nH]2)C(=O)c2ccccc2C3=O)cc1)c1nc2c([nH]1)C(=O)c1ccccc1C2=O	55.7	31.5	29.5	40.5	37.7	50.5	47.1													
COc1ccc2c(c1)C(=O)c1c-2n(CCCN=[N+]=[N-])c(=O)c2cc([N+](=O)[O-])ccc12	> 100	0.0849	9.11	> 100		0.783	0.737	1.3	0.0106	13.4	0.252 µM and 0.491 µM	> 100	< 0.001	0.0707 µM and 0.177 µM						
CCOC(=O)NC(=O)c1cn(CCN(CCO)C(=O)NCCCCCCNC(=O)N(CCO)CCn2cc(C(=O)NC(=O)OCC)c(=O)[nH]c2=O)c(=O)[nH]c1=O	> 100	> 100	> 100	> 100	> 100	> 100	> 100													
COc1cc2c(c(OC)c1OC)-c1ccc(OC)c(=O)cc1C(NC(=O)CCCCCNc1ccc(N=[N+]=[N-])cc1[N+](=O)[O-])CC2 (stereo not drawn)	0.644	< 0.01	< 0.0105	31.4	0.245	> 31.6	9.55			< 0.01		< 0.01								
COc1cc(-c2n/c(=C\c3c(O)[nH]c4ccccc34)cc3c2=Nc2ccccc2-3)ccc1F	> 100	24.1	21.6	90.8	> 100	86.7	59.7	18.1	4.45	20.2	5.8 µM	64.4	4.15	9.09 µM	20.9	4.07	4.09	2.05	22.2	17.2
COc1nc2ccc(Cl)c(C(O)c3ccccc3)c2nc1OC (stereo not drawn)	> 100	30.3	32.7	> 100	50.1	82.7	36.5	80.7		27.3		42.8								
CCCC[n+]1ccn(-c2nc3ccccc3n2C)c1	> 100	> 100	> 100	> 100	> 100	> 100	> 100			> 100										
COc1cc(/C=C2\C(=O)Nc3ccc(Cl)cc32)cc(OC)c1OC	> 100	> 100		62.3	> 100	> 100	> 100	92.3	12.7	> 100	3.26 µM	9.37	29.9	21.9 µM	13.8	22.3		3.29	21.2	9.16
N#C[S-].[Ce+3].c1ccc(-c2ccccn2)nc1.c1ccc(-c2ccccn2)nc1.c1ccc(-c2ccccn2)nc1	> 100	20.4	> 100	42.9	> 100	> 100	63.7		3.78	> 100			38.9	4.2 µM	8.61		30.5	25.7	6.15	5.18
